How the values were obtained:
[1] = biological target: PARG (Homo sapiens, UniProt Q86W56); assay: Biochemical assay (PARG, TFMU-ADPr substrate); settings: PARG, TFMU-ADPr substrate
[2] = test system: HCC1806; assay: Cell viability assay (CellTiter-Glo); type: cell-based, Human; settings: Homo sapiens, HCC1806, 168 h, HCC1806, 7 days, CellTiter-Glo; read-out: IC50 (nM) in cell viability assay

Chain of PARG (Q86W56 whole entry): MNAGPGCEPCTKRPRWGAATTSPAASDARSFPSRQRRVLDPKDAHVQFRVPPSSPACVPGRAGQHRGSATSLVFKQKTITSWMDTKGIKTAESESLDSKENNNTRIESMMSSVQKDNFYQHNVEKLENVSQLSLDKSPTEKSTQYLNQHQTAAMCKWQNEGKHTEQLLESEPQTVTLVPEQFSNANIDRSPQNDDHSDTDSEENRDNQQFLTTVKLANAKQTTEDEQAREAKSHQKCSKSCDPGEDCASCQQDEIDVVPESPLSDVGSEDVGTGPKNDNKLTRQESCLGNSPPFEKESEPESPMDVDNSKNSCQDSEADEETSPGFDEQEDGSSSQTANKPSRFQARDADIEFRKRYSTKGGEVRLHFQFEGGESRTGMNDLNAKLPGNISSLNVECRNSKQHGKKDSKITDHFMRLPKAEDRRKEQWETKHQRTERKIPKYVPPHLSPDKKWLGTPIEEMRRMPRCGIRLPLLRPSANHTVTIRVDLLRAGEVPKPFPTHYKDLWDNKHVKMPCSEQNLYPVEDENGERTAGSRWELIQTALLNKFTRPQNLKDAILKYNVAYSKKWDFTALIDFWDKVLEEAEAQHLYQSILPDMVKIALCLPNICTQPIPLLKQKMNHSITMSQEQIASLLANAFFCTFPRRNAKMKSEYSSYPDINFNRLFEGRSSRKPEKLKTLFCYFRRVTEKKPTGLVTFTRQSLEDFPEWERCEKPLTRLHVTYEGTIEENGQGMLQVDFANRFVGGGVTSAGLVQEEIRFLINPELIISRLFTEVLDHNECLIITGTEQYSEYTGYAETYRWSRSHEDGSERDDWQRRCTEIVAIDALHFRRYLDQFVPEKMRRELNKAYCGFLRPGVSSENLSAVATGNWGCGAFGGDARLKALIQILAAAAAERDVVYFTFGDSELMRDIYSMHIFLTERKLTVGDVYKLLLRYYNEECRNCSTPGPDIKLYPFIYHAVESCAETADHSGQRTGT

Row | IC50 [1] | IC50 [2] | Structure (SMILES)
1 | 39.8 nM | 1200 nM | CC(C)C(=O)N1CCN(c2cc(S(=O)(=O)NC3(C#N)CC3)cn3c(-c4nnc(C(F)(F)F)s4)cnc23)CC1 [Example 207, N-(1-cyanocyclopropyl)-8-(4-isobutyrylpiperazin-1-yl)-3-(5-(trifluoromethyl)-1,3,4-thiadiazol-2-yl)imidazo[1,2-a]pyridine-6-sulfonamide]
2 | 9.55 nM | 65 nM | CC1(NS(=O)(=O)c2cc(N3CCN(C(=O)C4(O)CC4)CC3)c3cnc(-c4nnc(C(F)(F)F)s4)n3c2)CC1 [Example 291, 8-(4-(1-hydroxycyclopropane-1-carbonyl)piperazin-1-yl)-N-(1-methylcyclopropyl)-3-(5-(trifluoromethyl)-1,3,4-thiadiazol-2-yl)imidazo[1,5-a]pyridine-6-sulfonamide]
3 | 1.09 nM | 27 nM | COC[C@H]1CN(c2cc(S(=O)(=O)NC3(C)COC3)cn3c(-c4nnc(C(F)F)s4)ncc23)C[C@H](C)N1 [Example 404, 3-(5-(difluoromethyl)-1,3,4-thiadiazol-2-yl)-8-((3R,5S)-3-(methoxymethyl)-5-methylpiperazin-1-yl)-N-(3-methyloxetan-3-yl)imidazo[1,5-a]pyridine-6-sulfonamide]
4 | 13.2 nM | 882 nM | CC(C)C(=O)N1CCN(c2cc(S(=O)(=O)NC3CC3)cn3c(-c4nnc(C(F)(F)F)s4)nc(C#N)c23)CC1 [Example 166, 1-cyano-N-cyclopropyl-8-(4-isobutyrylpiperazin-1-yl)-3-(5-(trifluoromethyl)-1,3,4-thiadiazol-2-yl)imidazo[1,5-a]pyridine-6-sulfonamide]
5 | 3.8 nM | 539 nM | N#CC1(NS(=O)(=O)c2cc(N3CCN(C(=O)C4CC(O)C4)CC3)c3cnc(-c4nnc(C(F)(F)F)s4)n3c2)CC1 (stereo not shown) [Example 283, N-(1-cyanocyclopropyl)-8-(4-(3-hydroxycyclobutane-1-carbonyl)piperazin-1-yl)-3-(5-(trifluoromethyl)-1,3,4-thiadiazol-2-yl)imidazo[1,5-a]pyridine-6-sulfonamide]
6 | 16.6 nM | 2000 nM | CN1CC(C(=O)N2CCN(c3cc(S(=O)(=O)NC4(C#N)CC4)cn4c(-c5nnc(C(F)(F)F)s5)ncc34)CC2)C1 [Example 252, N-(1-cyanocyclopropyl)-8-(4-(1-methylazetidine-3-carbonyl)piperazin-1-yl)-3-(5-(trifluoromethyl)-1,3,4-thiadiazol-2-yl)imidazo[1,5-a]pyridine-6-sulfonamide]
7 | 45.7 nM | 1750 nM | N#CC1(NS(=O)(=O)c2cc(N3CCN(C(=O)CO)CC3)c3cnc(-c4nnc(C(F)(F)F)s4)n3c2)CC1 [Example 276, N-(1-cyanocyclopropyl)-8-(4-(2-hydroxyacetyl)piperazin-1-yl)-3-(5-(trifluoromethyl)-1,3,4-thiadiazol-2-yl)imidazo[1,5-a]pyridine-6-sulfonamide]
8 | 2.71 nM | 93.9 nM | CC1(NS(=O)(=O)c2cc(N3CCN(C(=O)[C@H]4CCN4CCF)CC3)c3cnc(-c4nnc(C(F)(F)F)s4)n3c2)CC1 [Example 320, (R)-8-(4-(1-(2-fluoroethyl)azetidine-2-carbonyl)piperazin-1-yl)-N-(1-methylcyclopropyl)-3-(5-(trifluoromethyl)-1,3,4-thiadiazol-2-yl)imidazo[1,5-a]pyridine-6-sulfonamide]
9 | 20 nM | 713 nM | COC1(CN2CCN(c3cc(S(=O)(=O)NC4(C)CC4)cn4c(-c5nnc(C(F)F)s5)ncc34)CC2)CC1 [Example 350, 3-(5-(difluoromethyl)-1,3,4-thiadiazol-2-yl)-8-(4-((1-methoxycyclopropyl)methyl)piperazin-1-yl)-N-(1-methylcyclopropyl)imidazo[1,5-a]pyridine-6-sulfonamide]
10 | 18.2 nM | 642 nM | CC(C)OCC1CN(c2cc(S(=O)(=O)NC3(C)COC3)cn3c(-c4nnc(C(F)F)s4)ncc23)CCN1 (stereo not shown) [Example 361, 3-(5-(difluoromethyl)-1,3,4-thiadiazol-2-yl)-8-(3-(isopropoxymethyl)piperazin-1-yl)-N-(3-methyloxetan-3-yl)imidazo[1,5-a]pyridine-6-sulfonamide]
11 | 8.58 nM | 1070 nM | CC1(NS(=O)(=O)c2cc(N3CCNC4(CC4)C3)c3cnc(-c4nnc(C(F)F)s4)n3c2)COC1 [Example 365, 3-(5-(difluoromethyl)-1,3,4-thiadiazol-2-yl)-N-(3-methyloxetan-3-yl)-8-(4,7-diazaspiro[2.5]octan-7-yl)imidazo[1,5-a]pyridine-6-sulfonamide]
12 | 57.5 nM | 664 nM | N#CC1(NS(=O)(=O)c2cc(N3CCC4=C(COC4=O)C3)c3cnc(-c4nnc(C(F)(F)F)s4)n3c2)CC1 [Example 220, N-(1-cyanocyclopropyl)-8-(1-oxo-1,4,6,7-tetrahydrofuro[3,4-c]pyridin-5(3H)-yl)-3-(5-(trifluoromethyl)-1,3,4-thiadiazol-2-yl)imidazo[1,5-a]pyridine-6-sulfonamide]
13 | 0.48 nM | 50 nM | CC1(NS(=O)(=O)c2cc(N3CCN(C(=O)c4ccncc4)CC3)c3cnc(-c4nnc(C(F)F)s4)n3c2)CC1 [Example 338, 3-(5-(difluoromethyl)-1,3,4-thiadiazol-2-yl)-8-(4-isonicotinoylpiperazin-1-yl)-N-(1-methylcyclopropyl)imidazo[1,5-a]pyridine-6-sulfonamide]
14 | – | 4500 nM | N#CC1(NS(=O)(=O)c2cc(N3CCC(N)CC3)c3cnc(-c4nnc(C(F)(F)F)s4)n3c2)CC1 [Example 263, 8-(4-aminopiperidin-1-yl)-N-(1-cyanocyclopropyl)-3-(5-(trifluoromethyl)-1,3,4-thiadiazol-2-yl)imidazo[1,5-a]pyridine-6-sulfonamide]
15 | – | 1500 nM | CC(C)C(=O)NC1CCCN(c2cc(S(=O)(=O)NC3(C#N)CC3)cn3c(-c4nnc(C(F)(F)F)s4)ncc23)C1 (stereo not shown) [Example 267, N-(1-(6-(N-(1-cyanocyclopropyl)sulfamoyl)-3-(5-(trifluoromethyl)-1,3,4-thiadiazol-2-yl)imidazo[1,5-a]pyridin-8-yl)piperidin-3-yl)isobutyramide]
16 | – | 2000 nM | N#CC1(NS(=O)(=O)c2cc(N3CCCC(N)C3)c3cnc(-c4nnc(C(F)(F)F)s4)n3c2)CC1 (stereo not shown) [Example 262, 8-(3-aminopiperidin-1-yl)-N-(1-cyanocyclopropyl)-3-(5-(trifluoromethyl)-1,3,4-thiadiazol-2-yl)imidazo[1,5-a]pyridine-6-sulfonamide]
17 | – | 27200 nM | O=S(=O)(NC1CC1)c1cc(N2Cc3c[nH]nc3C2)c2cnc(-c3nnc(C(F)(F)F)s3)n2c1 [Example 247, N-cyclopropyl-8-(2,6-dihydropyrrolo[3,4-c]pyrazol-5(4H)-yl)-3-(5-(trifluoromethyl)-1,3,4-thiadiazol-2-yl)imidazo[1,5-a]pyridine-6-sulfonamide]
18 | – | > 30000 nM | CC(C)C(=O)N1CCN(c2cc(S(=O)(=O)NC3(C#N)CC3)cc3c(-c4nnc(C(F)F)s4)nc(Cl)n23)CC1 [Example 98, 3-chloro-N-(1-cyanocyclopropyl)-1-(5-(difluoromethyl)-1,3,4-thiadiazol-2-yl)-5-(4-isobutyrylpiperazin-1-yl)imidazo[1,5-a]pyridine-7-sulfonamide]

From US20260258035A1, “FIVE-MEMBERED AND SIX-MEMBERED NITROGEN-CONTAINING COMPOUND, AND INTERMEDIATE, PREPARATION METHOD AND USE THEREOF” (HANGZHOU SYNRX THERAPEUTICS BIOMEDICAL TECHNOLOGY CO., LTD., priority 2022, published 2026)
